Experimental data taken from ChEMBL document CHEMBL1123486, “Probes for narcotic receptor mediated phenomena. 9. Synthesis of (+/-)-(3 alpha,6a alpha,11a beta)-1,3,4,5,6,11a-hexahydro-2-methyl-2H-3,6a- methanobenzofuro[2,3-c]azocin-10-ol, an oxide-bridged 5-(m-hydroxyphenyl)morphan” (J Med Chem, 1986).

Biological target: Opioid receptor (Rattus norvegicus, UniProt P33533+P34975+P33535)
Assay: Binding affinity towards opioid receptor
Type: protein assay

SMILES	IC50 [nM]
CN1CC[C@@]23CC1CC[C@@H]2Oc1c(O)cccc13	1766
CN1CC[C@]23CCCC1[C@H]2Oc1c(O)cccc13	96
CN1CC2Oc3cc(O)ccc3[C@@]23CCCC1C3 (stereo partly drawn)	1000
